Reference: patent EP1056700B1, “MEDICINAL USES OF PHENYLALKANOLS AND DERIVATES” (ZingoTX Pty Ltd, priority 1997, dated 1999)
Blank lines part the entries; values can stand above or below the molecule they belong to.

What was measured:
[1] = molecular target: T1, Lipoxygenase (LP) (Rattus norvegicus, UniProt P12527); assay: Lipoxygenase assay with cell-free enzyme from RBL 2H3 cells (EIA); format: biochemical; conditions: for activity at 10 µM: final concentration of 10 µM
T1 construct: cell-free enzyme (Wong et al, 1991) prepared from rat basophilic leukemia (RBL) 2H3 cell lines; endogenous in cells; host or cells: RBL 2H3 (rat basophilic leukemia), 15,000 g supernatant of cells disrupted by nitrogen cavitation
T1 sequence (P12527 1-673): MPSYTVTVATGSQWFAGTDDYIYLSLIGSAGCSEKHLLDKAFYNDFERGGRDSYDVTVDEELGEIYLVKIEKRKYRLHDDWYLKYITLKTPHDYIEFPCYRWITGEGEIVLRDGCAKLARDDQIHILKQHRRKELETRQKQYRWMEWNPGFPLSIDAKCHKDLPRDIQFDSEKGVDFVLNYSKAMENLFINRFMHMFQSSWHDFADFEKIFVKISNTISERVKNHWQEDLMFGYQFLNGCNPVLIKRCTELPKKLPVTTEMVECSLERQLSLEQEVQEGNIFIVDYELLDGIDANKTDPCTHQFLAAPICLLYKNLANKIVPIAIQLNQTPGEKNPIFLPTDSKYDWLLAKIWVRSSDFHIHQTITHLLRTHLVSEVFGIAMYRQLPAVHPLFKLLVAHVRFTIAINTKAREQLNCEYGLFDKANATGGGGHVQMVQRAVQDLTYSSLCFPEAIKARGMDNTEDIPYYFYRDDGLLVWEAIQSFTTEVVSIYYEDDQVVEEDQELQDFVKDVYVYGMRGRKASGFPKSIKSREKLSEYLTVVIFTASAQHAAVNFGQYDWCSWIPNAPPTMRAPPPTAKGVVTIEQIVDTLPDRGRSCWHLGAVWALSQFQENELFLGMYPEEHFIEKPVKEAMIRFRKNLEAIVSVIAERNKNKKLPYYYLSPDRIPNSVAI
Description: Lipoxygenase (LP) assay was performed with cell-free enzyme (Wong et al, 1991) prepared from rat basophilic leukemia (RBL) 2H3 cell lines. Cells were cultured in EMEM containing 10% fetal calf serum and antibiotic until cells reached confluence. Harvested cells were resuspended in Hepes (10 mM) buffer, pH 7.4, containing 1 mM EDTA at 1 x 10^7 cells/ml, and disrupted by nitrogen cavitation using a Parr bomb at 750 psi for 15 min. The broken cells were centrifuged at 15,000 g for 30 min. Aliquots (0.1 ml) of the supernatant were preincubated with or without drugs in Hepes buffer (10 mM Hepes, pH 7, 1 mM EDTA and 150 mM NaCl) for 5 min, and the reaction was initiated with the addition of 50 µl of CaCl2 (16 mM), 50 µl of ATP (2 mM), 5 µl of PAF (2.5 mg/ml) and 5 µl of AA (2.5 mM). The reaction mixture ([…]) was incubated at room temperature for a further 8 min, then diluted with EIA buffer at 1/200 and 1/2000 dilutions and stored on ice for EIA following the protocol provided with the kit.
Validation of LP enzyme activity was carried out by a UV spectrophotometric method in which the enzyme activity was characterised against various concentrations of Ca^2+, ATP, PAF and AA with the measurement of the formation of diene conjugated products of LP at 235 nm.
All compounds were dissolved in DMSO and assayed at a final concentration of 10 µM. NDGA was used as reference compound. The concentration of DMSO in the assay was maintained at 1.5%.

[2] = test system: Cyclo-oxygenase (COX); assay: Cyclo-oxygenase assay in RBL 2H3 cells (PGD2 EIA); format: cell-based, rat
Description: Cyclo-oxygenase (COX) assay was performed with cells in culture prepared from rat basophilic leukemia (RBL) 2H3 cell lines. Cells were cultured in EMEM containing 10% fetal calf serum and antibiotic until cells reached confluence. Harvested cells were subsequently seeded on 24-well plates at 1 x 10^6 cells/ml then incubated at 37°C for 3 hours. Cells were washed twice with incubation buffer (1.5 ml) containing 5 mM Hepes, 140 mM NaCl, 5 mM KCl, 0.6 mM MgCl2, 1 mM CaCl2 and […]. Cells were then covered with 0.49 ml of buffer, followed by addition of samples/solvents (0.005 ml) and incubated at 37 °C for 5 min on an orbital shaker. Arachidonic acid (0.005 ml, containing 50% EtOH) was subsequently added, and the plate was incubated at similar conditions for a further 10 min. The supernatant (0.1 ml) was aliquoted for methoxime derivatisation of PGD2, which was carried out by heating the supernatant with methoxime solution (1:1) at 60 °C for 30 min according to the instructions provided with the kit. The resultant solution was diluted with EIA buffer and stored on ice for EIA, following the protocol provided with the kit.
Validation of COX enzyme activity was carried out using EIA in which the enzyme activity was characterised against various concentrations of AA and a time course of enzyme activity.
[…] Indomethacin was used as reference compound. The concentration of DMSO in the assay was maintained at 1.5%.

[3] = test system: DRG neuronal cells; assay: Peak [Ca^2+]i transients in cultured dorsal root ganglion neurons (Fura-2); format: cell-based, rat; conditions: for Number of capsaicin-sensitive cells responding / Peak [Ca^2+]i (Average ±SD): 2 mM Ca^2+
Description: DRG from neonatal (3-5 days old) rat or adult Sprague-Dawley rats were incubated in Hanks CMF saline with 0.05% collagenase and 0.25% trypsin for 25 min at 37° C. Individual cells were obtained by trituration with fire polished Pasteur pipettes of diminishing diameters. Neurones were isolated from the cell suspension in 30% Percoll and then plated on collagen coated coverslips or in 24-well plates, then cultured in neurobasal medium with B27 supplement, 50 ng/ml 2.5 S nerve growth factor, 2 mM 1-glutamine and 100 U/ml penicillin/streptomycin. Cultures were maintained at 37° C with 5% CO2. 30% Percoll increases the percentage of capsaicin-sensitive DRG neurones up to 70%. For peak [Ca^2+]i transients measurements, cells on coverslips were incubated with 5 µM Fura-2 AM for 30 min at 37° C. The coverslips were then mounted on a chamber attached to a fast sample application perfusion system which allows changing solutions in the second range. Recordings were made on the stage of a Nikon Diaphot inverted microscope fitted with a Nikon 40 x Fluo (NA 0.85) DL Ph3 or 40 x Fluo (NA 1.3) oil objective. [Ca^2+]i was calculated from dual excitation wavelength (340/380 nm) fluorescence measurements following an intracellular calibration procedure by the Grynkiewicz equation, using MCID M2/M4 v.3.0 (Imaging Res. Inc.) software. Cells were continuously perfused with a solution consisting of 140 mM NaCl, 2 mM CaCl2, 5 mM KCl, 20 mM HEPES, 10 mM glucose, pH 7.4. To study KCl evoked depolarisation, 50 mM NaCl was replaced by equimolar KCl. Cytoplasmic localisation of Fura-2 was tested with the Mn^2+ quenching technique (Dedov and Roufogalis, 1998). All experiments were performed at room temperature (20-23°C).
Typical changes in [Ca^2+]i upon depolarisation were evoked by 50 mM KCl and by application of 1 µM capsaicin; both were applied for 30 sec. Capsaicin-evoked peak [Ca^2+]i transients are characterised by a fast rise and long-steady state [Ca^2+]i clearance from the cytoplasm. In capsaicin-sensitive cells the half-time of cytoplasmic Ca^2+ clearance was proportional to the amplitudes of peak [Ca^2+]i transients.
To examine the effect of gingerol derivatives, one or several compounds in succession at a concentration of 10 µM were applied for 1 min to the DRG neuronal cells followed by washing out for 4 min with physiological solution. To the capsaicin-sensitive cells, 10 µM capsaicin and 50 mM KCl were applied, respectively, to confirm the viability of the cells. In addition, morphological appearances of the cells were also examined at the end of experiment. […]

[4] = test system: guinea pig atria; assay: Organ bath assay on isolated guinea pig atria (rate and force of contraction)
Description: Male guinea pigs, 3-4 weeks old, were killed by rapid cervical dislocation without induced anaesthesia. Then, the guinea pigs were dissected to isolate the atria which were immediately mounted vertically in an organ bath containing Krebs-Henseleit solution oxygenated with carbogen.
One gram tension was applied to the atria and the base line continuously adjusted until it was stable for 20 mins. The rate and force of contraction were recorded using Mac Lab equipment.
Test substances in DMSO were assayed to a maximum concentration of 50 µM at a final concentration of 2.5 % of DMSO.

[5] = molecular target: T2, SR Ca^2+-ATPase (Canis lupus familiaris, UniProt O46674); assay: Sarcoplasmic reticulum Ca^2+-ATPase assay; format: biochemical, dog; conditions: result in words
T2 construct: Effect of gingerols and their derivatives on the Ca^2+-ATPase activity of dog cardiac SR; from tissue; host or cells: dog heart (cardiac sarcoplasmic reticulum)
Description: A portion at each concentration (54 µl) was aliquoted into 4 designated wells of the microplate (two of four wells were controls). Each well was mixed with ATP solution (20 mM, 6 µl), except the controls, using an 8 channel pipette. The controls were assayed in the absence of ATP or calcium.
The plate was incubated with the lid on, for 30 min at 37°C, colour reagent (160 µl) was then added and mixed with citrate solution (34%, 30 µl). The plate was developed at room temperature for 30 min then absorbance at 655 nm was read from the microplate reader. The Ca^2+-ATPase activity was quantitated, from a Pi standard curve, as concentration of liberated inorganic phosphate.
Stock solutions (10 mM) of test substance were prepared in DMSO, then series dilutions were made either in DMSO or in 1M HEPES to produce the dose-response concentrations. The maximum concentration of DMSO in the final assay solution was 2.5%.
Each concentration of test substance was assayed in duplicate in the presence and absence of ATP or calcium. Phosphate standards are run on each plate as follows:
Effect of gingerols and their derivatives on the Ca^2+-ATPase activity of dog cardiac SR.

[6] = result in words, guinea pig atria

T2 sequence (O46674 whole entry): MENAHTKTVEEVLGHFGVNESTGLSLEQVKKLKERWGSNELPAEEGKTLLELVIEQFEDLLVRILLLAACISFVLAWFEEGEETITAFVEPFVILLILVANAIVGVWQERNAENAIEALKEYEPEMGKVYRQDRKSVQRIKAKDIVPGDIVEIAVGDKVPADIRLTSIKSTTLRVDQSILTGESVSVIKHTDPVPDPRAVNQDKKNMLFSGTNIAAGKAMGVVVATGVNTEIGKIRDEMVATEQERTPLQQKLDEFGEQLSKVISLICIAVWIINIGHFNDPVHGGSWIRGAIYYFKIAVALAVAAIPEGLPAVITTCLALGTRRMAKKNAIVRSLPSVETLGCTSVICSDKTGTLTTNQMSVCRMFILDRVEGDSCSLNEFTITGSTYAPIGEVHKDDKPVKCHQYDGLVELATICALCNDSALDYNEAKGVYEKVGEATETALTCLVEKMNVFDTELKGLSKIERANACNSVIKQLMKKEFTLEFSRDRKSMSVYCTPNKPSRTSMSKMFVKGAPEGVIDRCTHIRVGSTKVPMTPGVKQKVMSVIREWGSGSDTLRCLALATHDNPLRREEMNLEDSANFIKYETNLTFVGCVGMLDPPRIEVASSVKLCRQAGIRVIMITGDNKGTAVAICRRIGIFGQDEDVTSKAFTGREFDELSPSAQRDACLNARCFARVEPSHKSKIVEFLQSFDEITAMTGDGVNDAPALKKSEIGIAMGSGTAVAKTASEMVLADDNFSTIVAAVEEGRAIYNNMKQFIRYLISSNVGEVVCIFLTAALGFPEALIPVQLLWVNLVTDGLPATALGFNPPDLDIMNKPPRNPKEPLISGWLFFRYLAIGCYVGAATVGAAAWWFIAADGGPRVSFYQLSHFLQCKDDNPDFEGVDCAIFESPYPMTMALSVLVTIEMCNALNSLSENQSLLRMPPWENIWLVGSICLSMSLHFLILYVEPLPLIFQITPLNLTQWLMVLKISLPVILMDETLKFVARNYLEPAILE

Structure (SMILES): CCCCCCCCCC(O)C(=O)c1ccc(O)c(OC)c1 (centres unmarked) [2-hydroxy-1-(4-hydroxy-3-methoxyphenyl)undecan-1-one]
activity at 10 µM [1]: 61% | Cyclooxygenase activity % activity ([2]; final concentration of 10 µM): 95% | Number of capsaicin-sensitive cells responding ([3]; 10 µM applied for 1 min): 2 | Peak [Ca^2+]i (Average ±SD) ([3]; 10 µM applied for 1 min): 215 ± 7 nM

Structure (SMILES): COc1cc(CNC(=O)CCCC/C=C/C(C)C)ccc1O [Capsaicin, reference compound]
tachycardial and inotropic effects on guinea pig atria ([4]; result in words): tachycardial and inotropic effects | Number of capsaicin-sensitive cells responding ([3]; high responses, 10 µM): 5 | Peak [Ca^2+]i (Average ±SD) ([3]; high responses, 10 µM): 824 ± 122 (high responses) nM | evoked [Ca^2+]i transients ([3]; in Ca^2+-free medium or on application of ruthenium red (1 µM)): abolished or greatly diminished | Number of capsaicin-sensitive cells responding ([3]; low responses, 10 µM): 10 | Peak [Ca^2+]i (Average ±SD) ([3]; low responses, 10 µM): 134 ± 78 (low responses) nM

Structure (SMILES): C[C@H]1O[C@@H](O[C@H]2[C@@H](O)C[C@H](O[C@H]3[C@@H](O)C[C@H](O[C@H]4CC[C@@]5(C)[C@H](CC[C@@H]6[C@@H]5C[C@@H](O)[C@]5(C)[C@@H](C7=CC(=O)OC7)CC[C@]65O)C4)O[C@@H]3C)O[C@@H]2C)C[C@H](O)[C@@H]1O [Digoxin, reference compound]
time for tension to reach maximum after addition of a dose ([4]; guinea pig atria): a few mins

Structure (SMILES): COc1ccc2c(c1)c(CC(=O)O)c(C)n2C(=O)c1ccc(Cl)cc1 [Indomethacin, reference compound]
Cyclooxygenase activity % activity ([2]; 1 µM): 23%

Structure (SMILES): COc1cc(CCC(=O)CC(O)CCCCCCC(O)CC(=O)CCc2ccc(O)c(OC)c2)ccc1O (centres unmarked) [bisgingerol, 5,12-dihydroxy-1,16-bis(4-hydroxy-3-methoxyphenyl)hexadecane-3,14-dione]
FORCE OF CONTRACT^n [4, 6]: inactive | HEART RATE [4, 6]: inactive

Continued, in another order:

activity at 0.5 µM ([1]; 0.5 µM): 20%
Structure (SMILES): CC(Cc1ccc(O)c(O)c1)C(C)Cc1ccc(O)c(O)c1 (centres unmarked) [NDGA, reference compound]

activity at 10 µM [1]: 0%
Structure (SMILES): CCCCCCCC=CC(=O)CCc1ccc(O)c(OC)c1 [[8]-shogaol, 1-(4-hydroxy-3-methoxyphenyl)dodecan-4-ene-3-one, reference compound]
Cyclooxygenase activity % activity ([2]; final concentration of 10 µM): 21% | Number of capsaicin-sensitive cells responding ([3]; 10 µM applied for 1 min): 2 | Peak [Ca^2+]i (Average ±SD) ([3]; 10 µM applied for 1 min): 110 ± 56 nM

SR Ca^2+-ATPase [5]: inactive
Structure (SMILES): CCCCCCCC(O)CC(=O)CCc1ccc2c(c1)OCO2 (centres unmarked) [drawing 42]
